For assay [1], the system named is SMN. The experiment in a line: SMN immunostaining in SMA-like mouse motor neurons (FIG. 9C-9D). The format is cell-based. To be noted: A2 mouse ES-derived motor neurons, treated four days. On the procedure: (§1) FIG. 9A are images of immunostains of motor neurons derived from the ES-cells of A2 mice that lack a functional copy of mSMN but are supplemented with two copies of hSMN2 and thus are deficient but not completely lacking SMN protein were treated with MLN4924 for four days, SMN is shown in red and the hb9 promoter driven-GFP is shown in green. […] The error bars indicate ±S.E.M.

Assay [2] relates to SMN. The experiment in a line: Histogram analysis of SMN expression in motor neurons under SMN RNAi (FIG. 8C). The format is cell-based. From the text: (§2) MLN4924 is able to reverse the effects of SMN knockdown on motor neuron death. Representative images are shown.
Assay [3] deals with SMN. The experiment in a line: SMN in human motor neurons (summary of data). It counts as cell-based. The settings on record: human MNs. From the text: (§3) As shown herein, MLN increases SMN in human MNs, both in measures of average SMN and # of high SMN expressors. […] The effect on proliferation can be dissociated, for example, by using AraC in protocols for differentiation of cells into motor neurons.

In the next assay the test system is Brn2+ neurons. The experiment in a line: Survival of Brn2+ neurons (FIG. 13). The format is cell-based. To be noted: compared to DMSO control.
Assay [4] has as its system SMN. The assay can be described thus: SMN immunostaining in human motor neurons derived from SMA patient iPS cells (FIG. 10B, 10D, 10F). It counts as cell-based. The settings on record: SMA Type II (1-51) and SMA Type I iPS-derived motor neurons on glia with Ara C, 7 days. From the text: (§4) Representative images are shown for Type II motor neurons. SMN is shown in red, the motor neuron marker islet 1 is shown in green, and the nuclear marker Hoechst is shown in blue. […] Error bars indicate ±S.E.M.

Assay [5] relates to SMN. The experiment in a line: SMN levels in wild type and patient iPS-derived motor neurons (FIG. 16). It counts as cell-based, human. To be noted: motor neurons BJ RIPS (WT), A19 (C9 ORF), 27B (SOD1), 1-51N (SMA type II).
Assay [6] deals with human motor neurons. The assay can be described thus: Motor neuron survival in human motor neurons (summary of data). It counts as cell-based.
Text: as §3

The test system of assay [7] is human motor neurons derived from ALS patient iPS cells. The experiment in a line: Survival of human motor neurons derived from wild-type and ALS patient ES or iPS cells (FIG. 11). The settings on record: wild-type (HUES3, 18a) and ALS patient (47a) lines on glia, treated 14 days after 7 days in culture. The format is cell-based. The source says:
FIG. 11A are immune stains of motor neurons derived from human wild-type (HUES3, 18a) and ALS patient (47a) ES or iPS cells. […] Representative images are shown for the Hues3 line which expresses GFP under the hb9 promoter shown is green, human nuclear antigen (hNA) shown in pink, and the nuclear marker Hoechst is shown in blue. […] Error bars indicate ±S.E.M.

Assay [8] relates to SMN. The experiment in a line: Western blot of SMN in lysates of motor neuron cultures (FIG. 6A-6B). It counts as cell-based. To be noted: treated for 3 days, DMSO as control.
The next assay concerns hb9_RFP motor neurons. The experiment in a line: SMN knockdown (shRNA lentivirus) induced motor neuron death (FIG. 8A-8B). The format is cell-based. The settings on record: SMN knockdown using shRNA lentivirus in hb9_RFP motor neurons.
Text: as §2

The test system of another assay is SMN protein. The assay can be described thus: SMN-specific antibody staining of SMA patient and parent fibroblasts (FIG. 2C). It counts as cell-based. To be noted: human fibroblasts derived from SMA patients and their parents. The source says:
FIG. 2A is a Western blot analysis showing the levels of SMN in cells expressing wild-type SMN and the dominant negative form of Cullin1 protein. […] FIGS. 2D and 2E are dose response curves of nuclear (FIG. 2D) and cytoplasmic (FIG. 2E) SMN levels in SMA patient and parent fibroblasts treated with MLN4924 at the indicated time points. The error bars in FIGS. 2D and 2B indicate ±S.E.M. SMN levels are normalized to DMSO control for each cell line at each time point.

The next assay has as its system Gem counts. The assay can be described thus: Gem counts in wild type and ALS patient motor neurons (FIG. 18). The format is cell-based, human. The settings on record: motor neurons 18A (WT), A19 (C9 ORF), 31D (TDP43), 27B (SOD1).
The test system of assay [9] is SMN. The experiment in a line: Immunocytochemical analysis of SMN in motor neurons derived from mouse embryonic stem cells (FIG. 6D-6G). The format is cell-based. From the text:
FIGS. 6B and 6C are bar graphs quantifying the results in FIG. 6A. […] SMN is shown in red and GFP driven by the motor neuron specific promoter hb9 is shown in green. […] High SMN expressor is defined as those motor neurons that harbor SMN levels greater than the top 10th percentile as defined in the DMSO control. Error bars indicate ±S.E.M.

In assay [10] the test system is SMN-deficient human motor neurons. The experiment in a line: Survival of human motor neurons derived from SMA patient iPS cells (FIG. 10C, 10E). To be noted: SMA Type II (1-51) and SMA Type I iPS-derived motor neurons on glia with Ara C, 7 days. It counts as cell-based.
Text: as §4

Assay [11] has as its system SMN-deficient motor neurons. The assay can be described thus: Survival of SMA-like mouse motor neurons derived from ES cells of A2 mice (FIG. 9B). It counts as cell-based. The settings on record: A2 mouse ES-derived motor neurons (no mSMN, two copies of hSMN2), treated four days. On the procedure:
as §1

The subject of another assay is motor neurons. The experiment in a line: Survival of wild type and ALS patient motor neurons (FIG. 17). It counts as cell-based, human. The settings on record: BJ RIPS (WT), 18A (WT), 27B (SOD1), 31D (TDP43), A19 (C9ORF).
For assay [12], the system named is proliferation in the culture. The experiment in a line: Proliferation in motor neuron cultures. The format is cell-based.
Text: as §3

Assay [13] relates to motor neurons derived from ES cells. The assay can be described thus: Survival of ES cell-derived hb9-GFP motor neurons, time-course imaging (FIG. 7). It counts as cell-based, mouse. On the procedure:
FIG. 7A is a line graph showing the results of a time-course analysis of motor neurons derived from ES cells expressing GFP under the motor neuron specific hb9 promoter performed with imaging every 6 hours for a 7 day period. […] The error bars indicate ±S.E.M.

The test system of a further assay is SMN transcript. The assay can be described thus: Quantitative RT-PCR of SMN transcript in motor neuron cultures (FIG. 6C). To be noted: compared to control. It counts as cell-based.
The test system of assay [14] is human motor neurons. The assay can be described thus: SMN expression distribution in human motor neurons treated with Trichostatin A (FIG. 14). The settings on record: compared to a control. The format is cell-based.

Regarding `NS(=O)(=O)OC[C@@H]1C[C@@H](n2ccc3c(N[C@H]4CCc5ccccc54)ncnc32)C[C@@H]1O` [MLN4924, ((1S,2S,4R)-4-(4-(((S)-2,3-dihydro-1H-inden-1-yl)amino)-7H-pyrrolo[2,3-d]pyrimidin-7-yl)-2-hydroxycyclopentyl)methyl sulfamate], the SMN levels entry in the assay on SMN [1] is given as “significantly increases”; in the assay with SMN [4], “significantly increases”; in the assay on SMN [5], “increases SMN levels”. Besides, the “number of high SMN expressing motor neurons” value with SMN [1] is “significantly increases”; in the assay on SMN [2], “increases”; in the assay on SMN [4], “significantly increases”; in the assay with SMN [9] (high SMN expressor = SMN levels greater than the top 10th percentile of DMSO control), “dose-dependent effect”. In addition, the “# of high SMN expressors” value in the assay with SMN [3] was “increases”. Also, the “average SMN” value in the assay on SMN [3] is listed as “increases”. Moreover, the “survival of Brn2+ neurons” value with Brn2+ neurons is “increases survival”. Besides, the “survival of motor neurons derived from ALS patients and their parents” value in the assay on human motor neurons [6] is reported as “promotes survival”. For the same compound, the “survival of motor neurons derived from SMA patients and their parents” value in the assay on human motor neurons [6] is on record as “promotes survival”. For the same compound, in the assay on human motor neurons [6] (human motor neurons), the motor neuron survival entry was “promote motor neuron survival”. For the same compound, the “MN survival, preliminary results” value in the assay on human motor neurons [6] (preliminary, believed to depend on the amount of proliferation in the culture) is “variable”. Also, the “number of surviving motor neurons” value in [7], in assay [10] and in [11] was “significantly increases” each time. Further, the “SMN levels (Western blot)” value in the assay with SMN [8] is reported as “significantly increased”. Besides, in the assay with hb9_RFP motor neurons, the “effect of SMN RNAi on inducing motor neuron death” value is “significantly inhibits”. Also, in the assay on SMN protein, the “SMN protein (SMN-specific antibody staining)” value was “stabilization of SMN protein”. The Gem counts result in the assay with Gem counts is “increases Gem counts”. The “amount of low SMN expressors (histogram analysis)” value in the assay with SMN [9] (mouse ES-derived motor neurons) was “without affecting”. Moreover, in the assay with SMN [9] (mouse ES-derived motor neurons), the “number of motor neurons with higher levels of SMN expression (histogram analysis)” value was “increases”. For the same compound, the “average intensity of SMN” value in the assay on SMN [9] (mouse ES-derived motor neurons, treated at plating, fixed four days later, increasing levels of MLN4924) was “significantly increases in a dose-dependent manner”. Also, the “survival of motor neurons” value in the assay on motor neurons is reported as “increases the survival”. Besides, the proliferation result in assay [12] is recorded as “inhibits proliferation”. In [13] (imaging every 6 hours for a 7 day period), the “motor neuron survival (time-course analysis)” value is on record as “significantly increases”. In assay [13] (mouse-ES derived motor neurons), the “motor neuron survival (dose response)” value is reported as “dose-dependent significant increase”. Moreover, the “SMN transcript levels (quantitative RT-PCR)” value with SMN transcript is on record as “not significantly affected”.
`CC(/C=C/C(=O)NO)=C\[C@@H](C)C(=O)c1ccc(N(C)C)cc1` [Trichostatin A]: the “number of low SMN expressing motor neurons” value in the assay with human motor neurons [14] is “selectively reduces”.

(Values after US20150164901A1, “COMPOUNDS, COMPOSITIONS AND METHODS FOR TREATING OR PREVENTING NEURODEGENERATIVE DISORDERS” (President and Fellows of Harvard College, priority 2012, published 2015).)
